In US20080269202A1, “Novel 2,3-benzodiazepine derivatives and their use as antipsychotic agents” (Teva Pharmaceutical Industries Ltd., priority 2007, published 2008):
Read-outs that look alike come from different tables or passages of the source.

Legend:
[1] = test system: PCP-induced disruption of PPI; assay: PCP-induced disruption of pre-pulse inhibition (PPI)
Source text: Male C57B1/6J mice from Jackson Laboratories (Bar Harbor, Me.) were used in this study. Mice were received at 6-weeks of age. Upon receipt, mice were assigned unique identification numbers (tail marked) and were group housed in OPTImice cages. All animals remained housed in groups of four during the remainder of the study. […] During the period of acclimation, mice were examined on a regular basis, handled, and weighed to assure adequate health and suitability. Mice were maintained on a 12/12 light/dark cycle with the light on at 6:00 a.m. The room temperature was maintained between 20 and 23° C. with a relative humidity maintained between 30% and 70%. Food and water were provided ad libitum for the duration of the study. In each test, animals were randomly assigned across treatment groups.
All compounds were injected i.p. at a dose volume of 10 ml/kg. […] Phenylcyclohexylpiperidine (PCP) (8 mg/kg) was dissolved in sterile water.
The acoustic startle measured an unconditioned reflex response to external auditory stimulation. […] Mice were placed in the PPI chambers (Med Associates) for a 5 min session of white noise (70 dB) habituation.
After the acclimation period the test session was automatically started. The session started with a habituation block of 6 presentations of the startle stimulus alone, followed by 10 PPI blocks of 6 different types of trials. Trial types are: null (no stimuli), startle (120 dB), startle plus prepulse (4, 8 and 12 dB over background noise i.e. 74, 78 or 82 dB) and prepulse alone (82 dB). Trial types were presented at random within each block.
Each trial started with a 50 ms null period during which baseline movements were recorded. There was a subsequent 20 ms period during which prepulse stimuli were presented and responses to the prepulse measured. After further 100 ms the startle stimuli were presented for 40 ms and responses recorded for 100 ms from startle onset. Responses were sampled every ms. The inter-trial interval was variable with an average of 15 s (range from 10 to 20 s). In startle alone trials the basic auditory startle was measured and in prepulse plus startle trials the amount of inhibition of the normal startle was determined and expressed as a percentage of the basic startle response (from startle alone trials), excluding the startle response of the first habituation block.
Data were analyzed by analysis of variance (ANOVA) followed by post-hoc comparisons with Fisher Tests when appropriate. An effect was considered significant if p<0.05. Data are represented as the mean and standard error to the mean.

[2] = test system: apomorphine-induced stereotyped behavior; assay: apomorphine-induced stereotypy; format: in vivo, CD1 mice; conditions: Mus musculus, read-out: Stereotypy ED50 (mg/kg po.)
Source text: Anti-apomorphine effects were investigated in the climbing test in mice mediated through the mesolimbic and stereotypy test in rats mediated through the nigrostriatal system. Conventional antipsychotics antagonize both apomorphine-induced behaviours, while known atypical antipsychotics are weaker against apomorphine stereotypy.
Apomorphine-induced stereotypy was investigated according to Costall and Naylor (B. Costall and R. J. Naylor, Eur. J. Pharmacol. 1972, 18, 95) in male CD1 mice of 20-25 g body weight after 16 hours deprivation of food. 30 min before treatment mice were individually placed into small, transparent acrylic cages for habituation. Test substances were administered orally in a volume of 0.1 ml/10 g. 30 min later mice were treated with apomorphine HCl (SIGMA) in a subcutaneous dose of 2 mg/kg. […] The scores were summed individually, meaned and compared to the control group. The ED50 values were calculated by Litchfield-Wilcoxon's method (J. Pharmacol. Exp. Ther. 1949, 96, 49,).

[3] = test system: catalepsy; assay: catalepsy test in rats; format: in vivo, CDBR rats; conditions: sum of 8 readings over 4 hours
Source text: In order to investigate the potential side effect profile, the catalepsy test in rats has been carried out according to Costall and Naylor (Costall, B., Naylor, R. J. Arzneimittelforschung/Drug Res., 1973, 23, 674).
Catalepsy is defined as a failure to correct an externally imposed, unusual posture over a prolonged time. Neuroleptics which have direct inhibitory action on the nigrostriatal dopamine system induce catalepsy. It may be reflected by the Parkinson-like extrapyramidal symptoms seen clinically with administration of classical antipsychotics. The experiments were carried out in male CDBR rats weighing 300-400 g. The volume of administration was 0.25 ml/100 g body weight. The animals were starved for 16 hours before treatment, water was delivered ad libitum. After intraperitoneal administration of the test substances, the forepaws of the rats were placed on a horizontal stainless steel bar elevated to 10 cm high, while the hind paws remained on a metal plate. The semi-automatic 5-channel catalepsy meter measured the time spent in this unusual posture by an electronic stop-clock. The catalepsy time was scored from 0 to 5 according to the time spent in the unusual posture. […] Means of groups were calculated.

[4] = target: T1, Melatonin (MT2) receptor (Homo sapiens, UniProt P49286); assay: in vitro inhibition, melatonin (MT2) receptor; format: binding; conditions: conc: 10 μM
T1 sequence (P49286 1-362): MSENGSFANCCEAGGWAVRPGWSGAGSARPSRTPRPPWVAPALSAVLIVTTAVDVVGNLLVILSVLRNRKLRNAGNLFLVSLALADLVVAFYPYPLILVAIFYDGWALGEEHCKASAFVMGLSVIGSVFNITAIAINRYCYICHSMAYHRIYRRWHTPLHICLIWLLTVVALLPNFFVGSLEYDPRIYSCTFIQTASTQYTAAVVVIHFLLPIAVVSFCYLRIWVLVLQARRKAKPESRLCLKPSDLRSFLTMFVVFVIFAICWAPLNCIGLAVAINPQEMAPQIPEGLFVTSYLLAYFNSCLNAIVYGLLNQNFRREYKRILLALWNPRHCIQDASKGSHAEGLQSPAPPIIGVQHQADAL

[5] = target: T2, serotonergic receptors (Rattus norvegicus, UniProt P19327); assay: in vitro binding profile to serotonergic receptors (Table 3); conditions: rat hippocampal membranes, ligand [3H]-8-OH-DPAT; read-out: 5HT1A binding
T2 construct: other: rat hippocampal membranes, ligand [3H]-8-OH-DPAT
T2 sequence (P19327 1-422): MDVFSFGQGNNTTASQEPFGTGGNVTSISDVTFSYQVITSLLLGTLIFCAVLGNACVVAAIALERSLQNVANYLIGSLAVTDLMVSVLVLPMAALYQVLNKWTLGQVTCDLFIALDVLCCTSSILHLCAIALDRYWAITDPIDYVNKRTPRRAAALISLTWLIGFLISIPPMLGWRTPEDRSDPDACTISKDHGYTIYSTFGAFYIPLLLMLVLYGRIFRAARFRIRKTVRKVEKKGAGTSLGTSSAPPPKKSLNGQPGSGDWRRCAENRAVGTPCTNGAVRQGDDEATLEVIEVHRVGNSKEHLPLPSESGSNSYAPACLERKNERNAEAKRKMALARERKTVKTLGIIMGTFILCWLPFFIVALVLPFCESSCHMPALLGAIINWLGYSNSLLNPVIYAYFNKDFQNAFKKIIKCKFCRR
Source text: (§1) The new 2,3-benzodiazepine atypical antipsychotic agents of formula (I) of the present invention influence dopaminergic neurotransmission by a unique indirect fashion, differently from both the first and second generation antipsychotics. The in vitro binding profile of these compounds (Table 3) differs from that of the first generation antipsychotics which bind to dopaminergic receptors and second generation antipsychotics, representatives of which show affinity for dopaminergic, serotonergic, or adrenergic receptors.

[6] = target: T3, serotonergic receptors (Rattus norvegicus, UniProt P14842); assay: as above; conditions: rat cerebral cortical membranes, ligand [3H]ketanserin; read-out: 5HT2A binding
T3 construct: other: rat cerebral cortical membranes, ligand [3H]ketanserin
Source text: as §1

[7] = test system: PCP-induced stereotypy; assay: PCP-induced stereotypy in mice; format: in vivo, CD1 mice; conditions: Mus musculus, read-out: PCP-stereotypy ED50 mg/kg po.
Source text: Alterations in the mesocortical dopaminergic tract are thought to be responsible for the negative symptoms of schizophrenia (flattening of affect, poverty of speech, lack of volition and drive, loss of feeling, social withdrawal and decreased spontaneous movement). The best animal model of these symptoms is the behavioral changes induced by PCP (phencyclidine). The PCP-induced stereotypy and hypermotility was investigated in mice according to Ljungberg and Ungerstedt (Ljungberg, T., Ungerstedt, U. Pharmacol. Biochem. Behav., 1985, 23, 479,) and Jawitt (Jawitt, D. C. Amer. J. Psychiatry, 1991, 145, 1301). The stereotypy experiments were carried out in male CD1 mice weighing 20-25 g. The animals were starved for 16 hours before treatment without limitation of water availability. In the stereotypy studies, 30 min before treatment, mice were individually placed into small, transparent acrylic cages for habituation. Test substances were administered orally in a volume of 0.1 ml/10 g. 30 min later mice were treated with PCP with an intraperitoneal dose of 7 mg/kg. Stereotyped behavior was observed every 5th min for 60 min and scored from 0 to 4. The scores were summed individually, averaged and compared to the control group.
In both studies the ED50 values were calculated by the Litchfield-Wilcoxon's method (J. Pharmacol. Exp. Ther. 1949, 96, 49).

[8] = mice, po. 30 min before apomorphine 2 mg/kg s.c.
[9] = mice, po. 30 min before PCP 7 mg/kg ip

T3 sequence (P14842 whole entry): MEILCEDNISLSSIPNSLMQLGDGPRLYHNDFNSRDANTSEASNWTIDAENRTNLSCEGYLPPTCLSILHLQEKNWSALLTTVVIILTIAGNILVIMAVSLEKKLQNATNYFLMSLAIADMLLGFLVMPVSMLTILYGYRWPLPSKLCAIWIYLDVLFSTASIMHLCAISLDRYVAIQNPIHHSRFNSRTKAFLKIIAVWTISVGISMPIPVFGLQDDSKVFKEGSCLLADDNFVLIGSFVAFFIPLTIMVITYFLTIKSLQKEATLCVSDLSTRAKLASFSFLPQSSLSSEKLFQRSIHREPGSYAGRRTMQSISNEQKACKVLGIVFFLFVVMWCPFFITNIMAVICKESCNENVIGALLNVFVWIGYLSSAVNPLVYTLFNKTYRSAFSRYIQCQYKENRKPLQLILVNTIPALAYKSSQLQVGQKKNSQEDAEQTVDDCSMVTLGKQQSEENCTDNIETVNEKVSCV

Compound	sedation and lethargy in the mice ([1]; 5 mg/kg i.p. (high dose))	reversal of PCP-induced disruption of PPI ([1]; 2.5 and 5 mg/kg i.p., PCP 8 mg/kg, C57B1/6J mice)	ED50 [2] [mg/kg]	Catalapsy scores ([3]; dose 10 mg/kg ip)	inhibition at 10 µM [4] [%]	Ki [5] [µM]	Ki [6] [µM]	ED50 [7] [mg/kg]	ED50 [2, 8] [mg/kg]	Catalapsy scores ([3]; dose 40 mg/kg ip)	ED50 [7, 9] [mg/kg]
CNC(=O)N1N=C(c2ccc(N)cc2)c2cc(OC)c(OC)cc2C[C@H]1C [Example 121]	caused sedation and lethargy	significantly reversed	3.54	10:0	80	> 10	> 10	1.56	–	–	–
COc1cc2c(cc1OC)C(c1ccc(N)c(C)c1)=NN(c1ncon1)[C@H](C)C2 [Example 104]	–	–	–	–	80	> 10	> 10	–	6.97	40:0	1.12
CNC(=O)N1N=C(c2ccc(N)c(C)c2)c2cc(OC)c(OC)cc2C[C@H]1C [Example 123]	–	–	7.52	–	64	> 10	> 10	1.07	–	40:0	–
COc1cc2c(cc1OC)C(c1ccc(N)c(C)c1)=NN(c1nncs1)[C@H](C)C2 [Example 110]	–	–	–	10:0.375	95	> 10	> 10	–	3.5	–	2.38
